Reference: patent US6747045B2, “(Benzodioxan, benzofuran or benzopyran) derivatives having fundic relaxation properties” (Janssen Pharmaceutica N.V., priority 1997, dated 2004)

Key:
fundus of the stomach = test: Gastric tone measured by an electronic barostat in conscious dogs; type: in vivo; details: conscious female beagle dogs; 0.63 mg/kg s.c.; 1 hour after administration of the test compound
Procedure: C.1. Gastric Tone Measured by an Electronic Barostat in Conscious Dogs
Gastric tone cannot be measured by manometric methods. Therefore an electronic barostat was used. This allows the study of the physiological pattern and regulation of gastric tone in conscious dogs and the influence of test-compounds on this tone.
The barostat consists of an air injection system which is connected by a double-lumen 14-French polyvinyl tube to an ultrathin flaccid polyethylene bag (maximal volume: ±700 ml). Variations in gastric tone were measured by recording changes in the volume of air within an intragastric bag, maintained at a constant pressure, or at varying pressure levels. The barostat maintains a constant pressure (preselected) within a flaccid air-filled bag introduced into the stomach, changing the volume of air within the bag by an electronic feedback system.
Thus, the barostat measures gastric motor activity (contraction or relaxation) as changes in intragastric volume (decrease or increase resp.) at a constant intragastric pressure. The barostat consists of a strain gauge linked by an electronic relay to an air injection-aspiration system. Both the strain gauge and the injection system are connected by means of double-lumen polyvinyl tube to an ultrathin polyethylene bag. A dial in the barostat allows selection of the pressure level to be maintained within the intragastric bag.
Female beagle dogs, weighing 7-17 kg, were trained to stand quietly in Pavlov frames. They were implanted with a gastric cannula under general anaesthesia and aseptic precautions. After a median laparotomy, an incision was made through the gastric wall in longitudinal direction between the greater and the lesser curve, 2 cm above the nerves of Latarjet. The cannula was secured to the gastric wall by means of a double purse string suture and brought out via a stub wound at the left quadrant of the hypochondrium. Dogs were allowed a recovery period of two weeks.
At the beginning of the experiment, the cannula was opened in order to remove any gastric juice or food remnants. If necessary, the stomach was cleansed with 40 to 50 ml lukewarm water. The ultrathin bag of the barostat was positioned into the fundus of the stomach through the gastric cannula. In order to ensure easy unfolding of the intragastric bag during the experiment, a volume of 150-200 ml was injected into the bag by raising the pressure to maximally 14 mm Hg (about 1.87 kPa) very briefly. This procedure was repeated twice. A stabilisation period of 1 hour was allowed. […]

basilar arteries = test: Vasoconstrictive activity on basilar artery; parameters: species or system pigs; details: Sus scrofa; pig basilar artery segments, organ bath; response relative to serotonin 3×10^−7 M; estimated from three preparations; read-out: ED50-value (concentration causing 50% of the constrictive response obtained with serotonin)
Procedure: C.2 Vasoconstrictive Activity on Basilar Artery
Segments of basilar arteries taken from pigs (anaesthetised with sodium pentobarbital) were mounted for recording of isometric tension in organ baths. The preparations were bathed in Krebs-Henseleit solution. The solution was kept at 37° C. and gassed with a mixture of 95% O2-5% CO2. The preparations were stretched until a stable basal tensions of 2 grams was obtained.
The preparations were made to constrict with serotonin (3×10^−7 M). The response to the addition of serotonin was measured and subsequently the serotonin was washed away. This procedure was repeated until stable responses were obtained. Subsequently the test compound was administered to the organ bath and the constriction of the preparation was measured. This constrictive response was expressed as a percentage of the response to serotonin as measured previously.

Compound	% effect (percentual effect on relaxation of the fundus) (fundus of the stomach)	EC50 (basilar arteries)	melting point
O=C(O)C(=O)O.O=C1NCCCN1CCCNCC1CCc2ccccc2O1 (racemic) [Compound 1, (±)-1-[3-[[(3,4-dihydro-2H-1-benzopyran-2-yl)methyl]amino]-propyl]-tetrahydro-2(1H)-pyrimidinone ethanedioate(1:1)]	23.0%	> 1000 nM	226.3 °C
O=C1NCCCN1CCCN(Cc1ccccc1)CC1CCc2ccccc2O1 (racemic) [Compound 13, (±)-1-[3-[[(3,4-dihydro-2H-1-benzopyran-2-yl)methyl](phenylmethyl)amino]propyl]-tetrahydro-2(1H)-pyrimidinone]	0.4%	> 1000 nM	94.7 °C
O=C(O)C(=O)O.S=C1NCCCN1CCCNCC1CCc2ccccc2O1 (racemic) [Compound 14, (±)-1-[3-[[(3,4-dihydro-2H-1-benzopyran-2-yl)-methyl]amino]propyl]tetrahydro-2(1H)-pyrimidinethione ethanedioate(1:1)]		> 1000 nM	217.6 °C
N#CN=C1NCCCN1CCCNCC1CCc2ccccc2O1 (racemic) [Compound 21, (±)-[1-[3-[[(3,4-dihydro-2H-1-benzopyran-2-yl)-methyl]-amino]propyl]hexahydro-2-pyrimidinylidene]cyanamide ethanedioate (1:1)]		590 nM	177.5 °C
NC(=O)Nc1nccn1C1CCN(CC2CCc3ccccc3O2)CC1 (racemic) [Compound 66, (±)-[1-[1-[(3,4-dihydro-2H-1-benzopyran-2-yl)methyl]-4-piperidinyl]-1H-imidazol-2-yl]urea]		> 1000 nM	
O=C(O)C(=O)O.O=C1NCCCN1CCCNC[C@H]1CCc2ccccc2O1 [Compound 3, (R)-1-[3-[[(3,4-dihydro-2H-1-benzopyran-2-yl)methyl]amino]propyl]-tetrahydro-2(1H)-pyrimidinone ethanedioate (1:1)]	36.2%	> 1000 nM	
N#CNc1nccn1C1CCN(CC2CCc3ccccc3O2)CC1 (stereo not drawn) [Compound 59, [1-[1-[(3,4-dihydro-2H-1-benzopyran-2-yl)methyl]-4-piperidinyl]1H-imidazol-2-yl]cyanamide]		> 1000 nM	
(RR,SS)-1-[1-[2-(3,4-dihydro-2H-1-benzopyran-2-yl)-2-hydroxyethyl]-4-piperidinyl]-2-imidazolidinone [Compound 20]	9.5%		
